Source: US12692232B2, “Indole carboxamide compound, preparation therefor and use thereof” (NANJING RUISHUNING MEDICAL TECHNOLOGY CO., LTD., priority 2021, dated 2026)

Molecular target: T1, TRPC4 protein (Homo sapiens, UniProt Q9UBN4)
T1 sequence (Q9UBN4 1-977): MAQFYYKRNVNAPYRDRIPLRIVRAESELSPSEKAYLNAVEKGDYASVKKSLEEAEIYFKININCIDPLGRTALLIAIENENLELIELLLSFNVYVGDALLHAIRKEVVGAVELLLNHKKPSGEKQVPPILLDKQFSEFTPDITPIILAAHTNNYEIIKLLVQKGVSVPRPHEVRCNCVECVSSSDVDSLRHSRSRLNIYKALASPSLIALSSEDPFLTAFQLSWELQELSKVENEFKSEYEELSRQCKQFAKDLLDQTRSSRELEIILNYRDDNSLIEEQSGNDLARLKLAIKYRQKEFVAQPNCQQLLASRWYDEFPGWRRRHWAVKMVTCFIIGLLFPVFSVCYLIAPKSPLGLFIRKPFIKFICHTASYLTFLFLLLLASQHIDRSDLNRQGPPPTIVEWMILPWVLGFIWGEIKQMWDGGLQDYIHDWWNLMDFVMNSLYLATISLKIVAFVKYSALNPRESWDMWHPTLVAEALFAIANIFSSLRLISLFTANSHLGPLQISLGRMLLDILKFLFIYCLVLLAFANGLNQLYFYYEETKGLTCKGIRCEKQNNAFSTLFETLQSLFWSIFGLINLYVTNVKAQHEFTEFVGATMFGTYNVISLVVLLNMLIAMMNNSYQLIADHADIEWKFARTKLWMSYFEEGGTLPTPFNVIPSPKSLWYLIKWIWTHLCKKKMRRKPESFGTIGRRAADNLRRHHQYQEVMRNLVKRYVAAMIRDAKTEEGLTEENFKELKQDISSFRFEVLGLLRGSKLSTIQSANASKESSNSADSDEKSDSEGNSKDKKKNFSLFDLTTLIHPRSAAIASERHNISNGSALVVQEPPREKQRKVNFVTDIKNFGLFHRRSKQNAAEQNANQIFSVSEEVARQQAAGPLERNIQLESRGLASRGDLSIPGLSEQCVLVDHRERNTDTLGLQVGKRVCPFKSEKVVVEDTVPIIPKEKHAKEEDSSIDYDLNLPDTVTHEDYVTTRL
Experiment: MST binding to TRPC4 protein
Description: Preparation and labelling of protein solution: TRPC6 protein dry powder (Alomone Labs, Israel) was prepared into a protein mother solution at a concentration of 10 μM using PBS-Buffer, and 35 μL of the protein stock solution was taken to the Buffer exchange A column, and centrifuged to obtain the Tris-removed protein. 34 μL Labelling Buffer was added to the Tris-removed protein according to the instructions of the Protein Fluorescent Labelling Kit (model L001). After mixing well, 3 μL of NT-647-NHS fluorescent dye was added and thus obtained mixture was incubated for 20 minutes. The protein-dye mixture was transferred to the purification B column, 300 μL of PBS-Buffer was added, and the target protein, i.e. fluorescent labelled protein TRPC6, was collected by centrifugation (with a final concentration of about 2 μM). 180 μL of target protein was mixed with 1620 μL of PBS-Buffer, and then 9 μl of Tween-20 were added thereto. […]
The binding ability of the compounds of the present invention (as exemplified by the compounds 1-1 and 2-1 obtained in Examples 1 and 3) for other TRPC proteins (e.g., TRPC1, TRPC3, TRPC4, TRPC5, and TRPC7) was determined using the microscale thermophoresis (MST) method. […]
The affinity of the compounds of the present invention with TRPC1, TRPC3, TRPC4, TRPC5 and TRPC7 proteins, respectively, was determined by the same method as in Example 5.

SMILES | Kd for binding to TRPC4 protein
CC(=O)OCCCNC(=O)c1c(C=O)c2ccccc2n1C [compound 1-1, propyl 3-[(3-formyl-1-methyl-1H-indole-2-carbonyl)amino]acetate] | cannot be measured
Cn1c(C(=O)NCCCOC(=O)c2ccccc2)c(C=O)c2ccccc21 [compound 2-1] | cannot be measured
